Experimental data reported in patent US7157256B2, “Method for producing para-hydroxystyrene and other multifunctional aromatic compounds using two-phase extractive fermentation” (E. I. du Pont de Nemours and Company, priority 2003, dated 2007).
Several values for one entry are separate records, joined by “and”; a condition that tells them apart may be missing. Equal entries are not always repeated. Entries after “also recorded” stand apart in the source; their conditions may differ.

Key:
[1] = tested on: E. coli TY1 (DGL430); assay: Toxicity testing of organic solvents toward E. coli using agar cultures; format: cell-based; details: for % CFU 1 Sample 2 / % CFU Sample 1 / % CFU Sample 3: 5 mL solvent on inoculated LB agar plate, 30° C., CFU as percentage of control plates; for toxicity to E. coli in words: agar plate study
Experimental: This study was done using E. coli TY1 (DGL430), as described in Example 1. A stock culture of this strain was prepared in 50% glycerol and stored at −20° C. This stock culture (10 μL) was used to inoculate a 14 mL Falcon™ tube (BD Biosciences, Bedford, Mass.) containing 5 mL of LB medium, consisting of Bacto-tryptone (10 g/L), Bacto-yeast extract (5 g/L), and NaCL (10 g/L) adjusted to pH 7.5 with NaOH, and supplemented with tetracycline (10 μg/mL). This culture was incubated at 34° C. and 250 rpm overnight in an incubator shaker until an OD600 of between 1.0 and 2.0 was obtained. Dilutions of this culture were spread onto LB agar plates. The appropriate dilution was determined by experimentation to obtain between 100 to 200 colonies per plate. The solvents (5 mL) were filtered through a 0.2 μm filter onto the inoculated agar plates. All the solvents were tested in triplicate.
The plates were incubated overnight at 30° C. in a vented incubator located in a chemical fume hood. The colonies formed were counted after 24 and 48 h. The colony forming units (CFUs) obtained with each solvent were compared to those of the control plates and plotted in FIG. 1 as a percentage versus the log P value for the solvent (P values obtained from Hansch et al., Exploring QSAR: Hydrophobic, Electronic and Steric Constants, American Chemical Society, Washington, D.C., 1995). […] The error bars in the figure represent the range of the data. Cell growth on the agar medium was characterized by the presence of both distinct and non-distinct colony formations, which affected the precision of the colony counts. In the presence of some of the solvents tested, growth continued between 24 and 48 h, while with other solvents, no further growth was observed after 24 h.

[2] = P values obtained from Hansch et al. 1995; cited from earlier work
[3] = tested on: E. coli strain BNT511; assay: Effect of organic solvents on the growth of E. coli, shake flasks; format: cell-based; details: for OD 550: 10 mL solvent in 30 mL medium
Excerpt: E. coli strain BNT511 was used in this study. This strain is a tyrosine overproducing strain derived from E. coli strain NST 74 (ATCC No. 31884), which was obtained from the American Type Culture Collection (ATCC) (Manassas, Va.). Strain BNT511 is deposited with the American Type Culture Collection under the terms of the Budapest Treaty on the International Recognition of the Deposit of Microorganisms for the Purposes of Patent Procedure and has been assigned a depository designation of PTA-4314. E. coli strain BNT511 was obtained as follows. A culture of E. coli strain NST 74 was grown overnight at 37° C. in three milliliters of M9 medium, prepared as follows. A solution of M9 salts buffer consisting of KH2PO4 (3 g/L), Na2HPO4 (6 g/L), NaCl (0.5 g/L), and NH4Cl (1 g/L), was prepared and the pH was adjusted to 7.4. This M9 salts buffer was autoclaved and then the following solutions, each sterilized separately by filtration (glucose) or autoclaving, were added to give the concentrations given in parentheses MgSO4 (0.24 g/L), glucose (0.2%), CaCl2 (0.011 g/L), and yeast extract (1 g/L). After growth, the culture was diluted by a factor of 10^3 to 10^6 in M9 salts buffer. Then, 100 μL of each dilution was plated on M9+1% glucose agar containing […] of 3-fluorotyrosine and the plates were incubated at 37° C. After 18 h, growth was observed only on the plate not containing 3-fluorotyrosine. Plates containing 3-fluorotyrosine were incubated an additional 24 h, after which time, several isolates were identified. One NST 74-derived isolate was obtained from each of the 150 and 450 mg/mL 3-fluorotyrosine plates. Individual isolates were propagated on M9+1% glucose agar containing 0, 50, 150, or 250 mg/mL 3-fluorotyrosine. One of these two isolates was designated as BNT511.
E. coli strain BNT511 was grown in a medium containing KH2PO4 (0.15 g/L), Na2HPO4 (0.35 g/L), (NH4)2 SO4 (3 g/L), MgSO4.7H2O (0.3 g/L), yeast extract (0.5 g/L), MOPS (15.6 g/L), and glucose (10 g/L), adjusted to pH 6.8. A seed culture, taken from an active culture that grew in a fermentor and was diluted to 0.3 OD at 550 nm, was used to inoculate 30 mL of culture medium in 250 mL baffled flasks. Ten milliliters of the solvent to be tested, either 1-undecanol (98%, obtained from Aldrich) or 2-undecanone (98%, obtained from Aldrich), was added to the flask and the flasks were incubated at 35° C. and 300 rpm for 22 h in an incubator shaker. A flask without an organic solvent added served as the control. This experiment was run in duplicate. Samples of the aqueous culture media were removed at various times and the pH and the OD550 were measured. As shown by the results given in Table 2, the presence of the organic solvents tested had no significant effect on the growth of E. coli. However, the results obtained with 2-undecanone in these studies were not consistent. […] We believe that this variability was caused by variations in the purity of this solvent.

[4] = Extraction of CA into organic phase, two-phase flask fermentation; format: physicochemical
Experimental: The strain used in this study was E. coli WWQ51.1, as described in Example 3. The conditions were similar to those described in Example 3. Eight test cultures were inoculated; six contained 20 mL of 2-undecanone, the other two contained 20 mL of 1-undecanol. A 10% w/v solution of pHS in propylene glycol (0.5 mL), obtained from Sigma-Aldrich, Milwaukee, Wis., was added to two of the cultures containing 2-undecanone, as specified in Table 7.
The cultures were incubated in 250 mL baffled flasks at 35° C. and 300 rpm for 24 h in an incubator shaker. After this time, a sample of the aqueous phase was withdrawn and the pH, OD550, and the concentration of the fermentation products were measured, as described supra. The organic phase was also sampled and the concentration of CA and pHS were determined using HPLC, as described supra.
In this study, the pH decreased to low values and a significant amount of CA was extracted into both organic solvents tested. The amount of pHS produced was low, probably because of its poor stability at low pH. As shown by the data in Table 9, the amount of CA extracted into the organic phase was very dependent on the pH of the medium. This pH dependence results because the fully protonated species is the form extracted into the organic phase. The ionized acid form is very water-soluble and is not extracted into the organic phase. Therefore, the extractive fermentation of acidic compounds such as CA and pHCA is favored at low pH, where the acid exists primarily in the unionized form.

[5] = 2 h, 35° C., 300 rpm, duplicate flasks

SMILES | % CFU 1 Sample 2 [1] | % CFU Sample 1 [1] | % CFU Sample 3 [1] | Log P [2] | toxicity to E. coli in words [1] | also measured
CCCCC(=O)c1ccccc1 [1-Phenyl-1-pentanone] | 62% | 33% | 0% | 3.33 |  | 
CCCCCCCCCCCO [1-undecanol] |  |  |  |  |  | OD 550 [3, 5]: 1.428 and 1.456; OD 550 ([3]; 4.2 h): 1.96 and 2.14; OD 550 ([3]; 6 h): 6.02 and 6.7; OD 550 ([3]; 22 h): 19.1 and 15.7
CCCCCCCCC(C)=O [2-Decanone] | 0% | 0% | 0% | 3.39 |  | 
CCCCCCCCCCCC(C)=O [2-Tridecanone] | 115% | 100% | 87% | 4.95 | relatively nontoxic to E. coli | 
CCCCCCCCCC(C)=O [2-undecanone] | 11% | 11% | 11% | 3.91 | significantly inhibit growth | growth inhibition / toxicity to E. coli of some lots ([3]; 2-undecanone from some suppliers and lots, ascribed to impurities): found to inhibit growth; also recorded: toxic to E. coli due to impurities; OD 550 [3, 5]: 1.004; OD 550 ([3]; 4.2 h): 1.88; OD 550 ([3]; 6 h): 6.3 and 6.28; OD 550 ([3]; 22 h): 15.2 and 12.3
O=C(O)C=Cc1ccccc1 [CA, cinnamic acid] |  |  |  |  |  | CA Org/CA Aq ([4]; Flask 1, 2-undecanone 20 mL/flask, pH 5.38, 24 h): 3.55; CA Org/CA Aq ([4]; Flask 2, 2-undecanone, pH 4.5): 17.00; CA Org/CA Aq ([4]; Flask 3, 2-undecanone, pH 5.5): 1.43; CA Org/CA Aq ([4]; Flask 4, 2-undecanone, pH 5.4): 2.54; CA Org/CA Aq ([4]; Flask 5, 2-undecanone, pH 4.8): 8.08; CA Org/CA Aq ([4]; Flask 6, 2-undecanone, pH 5.7): 1.10; CA Org/CA Aq ([4]; Flask 7, 1-undecanol, pH 5.7): 2.10; CA Org/CA Aq ([4]; Flask 8, 1-undecanol, pH 5.71): 2.15
c1ccc(COCc2ccccc2)cc1 [Dibenzyl ether] | 5% | 1.5% | 0% | 3.1 |  | 
CC(C)CCOCCC(C)C [Diisopentyl ether] | 39% | 13% | 0% | 3.96 |  | 
CCCCCCCCCC(=O)OC [Methyl decanoate] | 109% | 73% | 44% | 4.41 | relatively nontoxic to E. coli | 
CCCOC(=O)c1ccccc1 [Propyl benzoate] | 26% | 9% | 0.9% |  |  | 
